Holding throughout (test): DTP human tumour cell line panel, 48 h
Assay [1] has as its system U251 CNS.
For assay [2], the system named is BT-549 breast.
The test system of assay [3] is HOP-92 NSCLC.
The subject of assay [4] is PC-3 prostate.
Assay [5] relates to A549 NSCLC.
In assay [6] the test system is CCRF-CEM leukemia.
The subject of assay [7] is IGROV1 ovarian.
The test system of assay [8] is MALME-3M melanoma.
The subject of assay [9] is MDA-MB-231 breast.
Assay [10] has as its system SF-268 CNS.

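Dose response: 5 concentrations. Exposure: 48 h. Format: 96-well plates. Endpoint: linear interpolation; highest concentration if not reached. Here, GI50 denotes the concentration required for 50% inhibition of growth. TGI marks complete inhibition of growth.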 Where a SMILES comes first, the peptide text is derived from it.

For the compound `O=S(=O)(O)c1cc(N=[N+]([O-])c2cc(S(=O)(=O)O)c3ccccc3c2)cc2ccccc12`, the TGI in [1] is greater than 100 µM; in [2], 39 µM; in assay [3], greater than 100 µM; in assay [4], greater than 100 µM; in [5] it was greater than 100 µM; in assay [6], greater than 100 µM. Besides, the TGI in assay [7], in [8], in assay [9] and in [10] was greater than 100 µM in each case.

With `C1=CC(=[N+]2N=C(c3ccccc3)CC2c2ccccc2)C=CC1=C1SC(c2ccccc2)(c2ccccc2)c2ccccc21` (stereo unspecified), the TGI in assay [1], in assay [2], in assay [3], in [4], in [5] and in assay [6] was greater than 100 µM throughout. Further, the TGI in [7], in assay [8], in assay [9] and in [10] was greater than 100 µM in each case.

For the compound `O=C1CC2(CCC(O)(c3cccs3)C(C(=O)c3cccs3)C2)C(=O)c2ccccc2N1` (stereo unspecified), the TGI in assay [1], in assay [2], in assay [3], in [4], in assay [5] and in [6] was greater than 100 µM throughout. Besides, the total growth inhibition concentration (TGI) in [7], in assay [8], in assay [9] and in assay [10] was greater than 100 µM each time.

With `O=c1c2ccccc2[nH]c(=S)n1-c1ccc(N=Nc2cccc3cc(O)ccc23)cc1`, the TGI in [1], in assay [2], in assay [3], in [4], in assay [5] and in assay [6] was greater than 100 µM throughout. Moreover, the TGI in assay [7], in assay [8], in assay [9] and in [10] was greater than 100 µM each time.

Take `Nc1cc(-c2ccc(Cl)cc2)nn1-c1nc2ccccc2nc1-c1ccccc1`: the TGI in assay [1], in [2], in assay [3], in assay [4], in [5] and in [6] was greater than 100 µM in each case. Further, the TGI in assay [7], in [8], in assay [9] and in assay [10] was greater than 100 µM each time.

Consider `O=[N+]([O-])c1ccc2c(c1)nc(Cc1ccc(Cl)cc1)n2C[C@@H]1CCCN2CCCCC12` (stereo partly specified), for which the concentration for total growth inhibition (TGI) in assay [1] was 45.5 µM; in assay [2], 27.1 µM; in [3] it was 25.4 µM; in assay [4], greater than 51.7 µM; in [5], 42.1 µM; in assay [6], greater than 44.5 µM. The TGI in assay [7] was found to be 26.7 µM; in assay [8] it was 26.2 µM; in assay [9] it was 32.6 µM; in assay [10], 6.27 µM.

In the case of `Nc1ccc(-c2nc3cc(F)ccc3s2)cc1CO`, the TGI in assay [1] was 41.5 µM; in assay [2], 51.2 µM; in assay [3], 43.5 µM; in [4] it was greater than 76.1 µM; in assay [5] it was greater than 100 µM; in assay [6] it was greater than 100 µM. Also, the TGI is 63.4 µM in assay [7], greater than 100 µM in [8], greater than 70 µM in assay [9] and 68.8 µM in assay [10].

For `C/C(N=Nc1nc2ccccc2[nH]1)=C1/C=CC=CN1O`, the TGI in [1], in [2], in assay [3], in assay [4], in assay [5] and in [6] was greater than 100 µM each time. Further, the TGI in [7], in [8], in assay [9] and in [10] was greater than 100 µM each time.

As to `COc1cc2c(cc1C)NC(=O)/C2=C/c1c(Cl)n(-c2ccccc2)c2ccccc12`, the concentration for total growth inhibition (TGI) in [1] is 64.3 µM; in assay [2], 66.5 µM; in assay [3] it was greater than 100 µM; in [4], greater than 100 µM; in assay [5] it was greater than 100 µM; in assay [6], 30.8 µM. The TGI in assay [7] is greater than 100 µM; in [8], 37.2 µM; in assay [9], greater than 100 µM; in [10] it was greater than 100 µM.

For the compound `N#Cc1c(N)nc2c(c1-c1ccc(Br)cc1)CSc1ccccc1-2`, the concentration for total growth inhibition (TGI) was greater than 100 µM in assay [1]; greater than 100 µM in assay [2]; 50.2 µM in assay [3]; 86.5 µM in [4]; greater than 100 µM in assay [5]; 92 µM in assay [6]. The TGI is greater than 100 µM in assay [7], greater than 100 µM in assay [8], 51.6 µM in assay [9] and greater than 100 µM in assay [10].

For `Nc1ccc(Oc2ccc(C34CC5CC(C3)CC(c3ccc(Oc6ccc(N)cc6)cc3)(C5)C4)cc2)cc1`, the TGI in assay [1] was 21.6 µM; in [2] it was 33.6 µM; in [3], 25.8 µM; in [4], 25.7 µM; in assay [5], greater than 60.7 µM; in [6], greater than 100 µM. The TGI in [7] was 15.4 µM; in assay [8] it was 28.7 µM; in assay [9] it was 32.9 µM; in [10] it was greater than 51.7 µM.

Turning to `CC(=O)c1ccc2c(c1)N(CCCN1CCN(CCO)CC1)c1ccccc1C2`, the total growth inhibition concentration (TGI) worked out at 29.8 µM in assay [1]; 28.1 µM in [2]; 27.4 µM in assay [3]; 27.8 µM in [4]; 33.3 µM in assay [5]; 28.2 µM in assay [6]. Besides, the concentration for total growth inhibition (TGI) is 31.3 µM in [7], 33 µM in [8], 26.7 µM in [9] and 33.2 µM in assay [10].

With `C#C[C@]1(O)CC[C@H]2[C@@H]3CCC4=C/C(=N\OCCN(CC)CC)CC[C@]4(C)[C@H]3CC[C@@]21C`, the total growth inhibition concentration (TGI) was greater than 38.3 µM in assay [1]; 31.5 µM in assay [2]; 52.9 µM in [3]; 16.1 µM in assay [4]; greater than 41.4 µM in [5]; 44.9 µM in assay [6]. The total growth inhibition concentration (TGI) in assay [7] worked out at 17.1 µM; in [8], 10.2 µM; in assay [9], 35.2 µM; in assay [10], 10.8 µM.

With `O=C1/C(=C\c2ccc(F)cc2)CCOc2c1ccc1ccccc21`, the concentration for total growth inhibition (TGI) is greater than 100 µM in assay [1]; 77.3 µM in [2]; 71.5 µM in assay [3]; greater than 100 µM in assay [4]; greater than 70.3 µM in assay [5]; 35.9 µM in assay [6]. The total growth inhibition concentration (TGI) in assay [7] was greater than 100 µM; in assay [8], 37.7 µM; in [9], greater than 47.7 µM; in [10], 74.9 µM. Also, the GI50 in [7] was greater than 100 µM.

Take `CCCCCOC(=O)c1cc2cc(CCl)ccc2oc1=O`: the concentration for total growth inhibition (TGI) in [1] is 34.9 µM; in assay [2], 40.6 µM; in [3], 7.35 µM; in [4], 15.2 µM; in [5], 41 µM; in [6], greater than 81.1 µM. For the same compound, the total growth inhibition concentration (TGI) in [7] came to 27.8 µM; in assay [8], 8.33 µM; in assay [9], 37.5 µM; in assay [10], 41.9 µM.

For the compound `COC(=O)C[C@H](COCc1ccccc1)NC(=O)C[C@H](COCc1ccccc1)NC(=O)OC(C)(C)C`, the concentration for total growth inhibition (TGI) is 67.7 µM in assay [1]; 51.9 µM in [2]; 65.5 µM in assay [3]; 77.6 µM in [4]; 62.4 µM in [5]; greater than 100 µM in assay [6]. Further, the TGI in [7] is greater than 100 µM; in [8], greater than 100 µM; in assay [9], greater than 100 µM; in assay [10], 40.5 µM.

As to `Cc1cc(=O)[nH]c(/N=C(\N)Nc2ccc(Cl)cc2)n1`, the TGI in assay [1], in assay [2], in assay [3], in assay [4], in assay [5] and in assay [6] was greater than 100 µM throughout. In addition, the concentration for total growth inhibition (TGI) in [7], in [8], in assay [9] and in assay [10] was greater than 100 µM each time.

`CCC(C)C(NC(=O)C1CCCN1C(=O)C(CC(C)C)NC(=O)C(CC(C)C)NC(=O)C(N)CC(C)C)C(=O)NC(C(=O)NCC(=O)NC(CC(N)=O)C(=O)NC(CC(C)C)C(=O)NC(CC(C)C)C(=O)NC(CC(C)C)C(N)=O)C(C)C` (stereo unspecified) (H-LLLPIVGNLLL-NH2; configuration not given here): the TGI in [1], in [2], in [3], in [4], in assay [5] and in assay [6] was greater than 50 µM in each case. Also, the TGI in [7], in [8], in assay [9] and in assay [10] was greater than 50 µM throughout.

The TGI is the concentration at which net growth stops. What is called GI50 is the concentration that inhibits growth by half.

The values are drawn from PubChem BioAssay (NCI).
